Assay results from the COVID Moonshot data (paper PMC7615835).
“And” between values parts separate entries of the source, which are not always exact repeats. Equal entries are not always repeated.

What follows are compounds tested against SARS-CoV-2 Main Protease (SARS-CoV-2) (UniProt P0DTD1).
With `CCn1c2ccccc2c2cc(Nc3cc(Cl)cc(CC(=O)Nc4cncc5ccccc45)c3)ccc21` the IC50 was 2.73 µM.
For `O=C(Cc1cc(Cl)cc(Nc2ccc3nccnc3c2Br)c1)Nc1cncc2ccccc12`, the IC50 was 1.97 µM.
Work on `Cc1cnn(C)c1C(=O)N1Cc2ccc(Cl)cc2C2(CCN(c3cncc4ccccc34)C2=O)C1` (centres undefined) yielded an IC50 of 0.683 µM.
`Cc1nocc1C(=O)N1Cc2ccc(Cl)cc2C(C(=O)Nc2cncc3ccccc23)C1` (centres undefined) showed an IC50 of 0.168 µM.
`N#Cc1cccc(C2CN(C(=O)CCl)Cc3ccccc32)c1` (centres undefined) was tested, and the IC50 was 1.17 µM.
Work on `CN(C)CCCN(Cc1cccs1)C(=O)Cc1cncc2ccccc12` yielded an IC50 greater than 99.5 µM.
With `O=C(c1ccc2nnnn2c1)N1CCn2c(cc3ccccc32)C1` the IC50 was greater than 99.5 µM.
With `N#CC1(CS(=O)(=O)N2Cc3ccc(Cl)cc3C3(CCN(c4cncc5cccc(Cl)c45)C3=O)C2)CC1` (centres undefined) the IC50 was 7.79 µM.
Work on `CN(Cc1nc2ccccc2s1)C(=O)c1ccc2c(c1)nnn2C` yielded an IC50 greater than 99.5 µM.
`COc1ccc2c(NC(=O)C3CCOc4ccc(Cl)cc43)[nH]nc2c1` (centres undefined) showed an IC50 greater than 99.5 µM.
In the case of `O=C(Cc1cccc(Cl)c1)Nc1cncc2cccc(Cl)c12`, the IC50 is reported as 0.594 µM.
Work on `COc1cccc(C2=N/C(=C/c3sccc3C)C(=O)O2)c1` yielded an IC50 of 1.17 µM.
In the case of `O=C(NCCc1cccc(F)c1)C(c1cccnc1)N(C(=O)c1cocn1)c1ccc2nc(C(F)(F)F)[nH]c2c1` (centres undefined), the IC50 is reported as 77.6 µM.
Compound `N#Cc1cccc(CN2CCN(C(=O)CCl)CC2)c1` has an IC50 of 19.7 µM.
`CN(C)C(=O)C(CNC(=O)[C@@H](c1ccccc1)N1Cc2ccccc2C1=O)c1ccccc1` (stereo in doubt) showed an IC50 greater than 99.5 µM.
In the case of `CC(C)(C)c1ccc(N(C(=O)c2ccc(Cl)o2)C(C(=O)NCCc2cccc(F)c2)c2cccnc2)cc1` (centres undefined), the IC50 is reported as 0.315 µM.
With `CN(CC#N)S(=O)(=O)N1Cc2ccc(Cl)cc2C2(CCN(c3cncc4ccccc34)C2=O)C1` (centres undefined) the IC50 was 0.407 µM.
Work on `O=C(C1CCOc2cc(Cl)ccc21)N(Cc1c[nH]c(=O)[nH]c1=O)c1cncc2ccccc12` (centres undefined) yielded an IC50 of 7.14 µM.
Compound `CNC(=O)CN1CC(C)(C(=O)Nc2cncc3cccc(Cl)c23)c2cc(Cl)ccc2S1(=O)=O` (centres undefined) has an IC50 of 1.16 µM.
With `COc1cc(COc2cc(Cl)cc(CC(=O)Nc3cnccc3C)c2)ccc1OC(F)F` the IC50 was greater than 99.5 µM.
`Cc1ccncc1NC(=O)Cc1cccc(C#N)c1` was tested, and the IC50 was 63.7 µM and 59 µM.
For `COc1cc(C)ccc1CN(C(=O)c1cocn1)C(C(=O)NCCc1cccc(F)c1)c1cccnc1` (centres undefined), the IC50 was greater than 99.5 µM.
With `Cc1c(C(=O)CCl)c2ccccn2c1C(=O)c1ccc(F)cc1` the IC50 was 0.719 µM.
`Cc1ccccc1CC(=O)Nc1cncc2ccccc12` gave an IC50 of 29.5 µM.
With `Cc1cc(Cl)cc(CC2CCN(C(=O)CCl)CC2)c1` the IC50 was 3.57 µM.
`O=C(Cc1cc(Cl)cc(Nc2cc(Cl)cc(Cl)c2O)c1)Nc1cncc2ccccc12` gave an IC50 of 9.19 µM.
Work on `O=C(Nc1ccc2c(=O)cc[nH]c2c1)c1ccc2ccncc2c1` yielded an IC50 greater than 99.5 µM.
Compound `COc1ccccc1NCCNC(=O)c1cc(=O)[nH]c2ccccc12` has an IC50 greater than 99.5 µM.
For `N#CC1(CS(=O)(=O)N2Cc3ccc(Cl)cc3[C@H](C(=O)Nc3cncc4ccccc34)C2)CCS(=O)(=O)CC1` (stereo in doubt), the IC50 was < 0.05 µM and 0.0814 µM and 0.0524 µM.
Work on `O=C(Cc1cc(Cl)cc(Nc2ccc(I)cc2F)c1)Nc1cncc2ccccc12` yielded an IC50 of 2.24 µM.
Work on `O=C(Cc1cccc(Cl)c1)Nc1[nH]nc2cccnc12` yielded an IC50 greater than 99.5 µM.
`N#Cc1cnn(-c2ccc([N+](=O)[O-])cc2)c1Nc1cc(Cl)cc(CC(=O)Nc2cncc3ccccc23)c1` gave an IC50 of 1.84 µM.
For `CNC(=O)CN1CC(C(=O)Nc2cncc3ccc(C(C)(C)O)cc23)c2cc(Cl)ccc2C1=O` (centres undefined), the IC50 was 0.384 µM.
`O=C(Cc1cc(Cl)cc(NCc2ccc(Br)cc2F)c1)Nc1cncc2ccccc12` gave an IC50 of 3.49 µM.
`CC(=O)C(=O)N1CCN(Cc2cccc(Cl)c2)[C@@H](CC(C)C)C1` (stereo in doubt) gave an IC50 greater than 99.5 µM.
`CC(C)(C)c1ccc(N(C(=O)c2cocn2)C(C(=O)NCC(=O)OCc2ccccc2)c2cccnc2)cc1` (centres undefined) was tested, and the IC50 was 9.92 µM.
With `CNC(=O)CN1CC(C)(C(=O)Nc2cncc3cc(Cl)ccc23)c2cc(Cl)ccc2S1(=O)=O` (centres undefined) the IC50 was 0.393 µM.
`N#CC1(CS(=O)(=O)N2Cc3ccc(Cl)cc3C(C(=O)Nc3cncc4ccccc34)C2)CCCC1` (centres undefined) was tested, and the IC50 was 0.079 µM and 0.0884 µM.
`Cn1cncc1CN(C(=O)CC1(C(=O)Nc2cncc3ccccc23)CCOc2ccc(Cl)cc21)C1CC1` (centres undefined) gave an IC50 of 6.1 µM.
`CC1(NC(=O)CN2Cc3ccc(Cl)cc3C3(CCN(c4cncc5ccccc45)C3=O)C2)CC1` (centres undefined) showed an IC50 of 0.271 µM.
In the case of `O=C(Cc1cc(Cl)cc(Nc2ccc(OC(F)(F)F)cc2Cl)c1)Nc1cncc2ccccc12`, the IC50 is reported as 1.9 µM.
With `O=C(NCCc1cccc(F)c1)C(c1cccnc1)N(C(=O)c1cnc[nH]1)c1ccc2c(c1)COCC2` (centres undefined) the IC50 was greater than 99 µM.
With `Cc1nnc(C2CCN(C(=O)c3ccc(Br)cc3)CC2)[nH]1` the IC50 was greater than 99.5 µM.
Work on `CC(C)(C)OC(=O)N1CCC(NC(=O)C(c2cccnc2)N(C(=O)c2cocn2)c2ccc(C(C)(C)C)cc2)C1` (centres undefined) yielded an IC50 of 3.65 µM.
Compound `CN(C)c1ccc(N(Cc2ccn[nH]2)C(=O)Cn2nnc3ccccc32)cc1` has an IC50 of 15.9 µM.
Work on `O=C(CCl)N1CCCN(S(=O)(=O)c2cccs2)CC1` yielded an IC50 of 7.24 µM.
`Cn1ncc2cc(C(=O)NNc3nc4cccnc4s3)cnc21` gave an IC50 greater than 99.5 µM.
In the case of `Cn1cccc(C(C(=O)NCCc2cccc(F)c2)N(C(=O)c2cocn2)c2ccc(C(C)(C)C)cc2)c1=O` (centres undefined), the IC50 is reported as greater than 99.5 µM.
In the case of `O=C(CCl)N1CCCN(S(=O)(=O)c2cc(F)ccc2F)CC1`, the IC50 is reported as 12.1 µM.
Compound `O=C(Cc1cc(Cl)cc(Nc2cc(F)c(Br)c(F)c2)c1)Nc1cncc2ccccc12` has an IC50 of 2.05 µM.
`C=CC(=O)N(c1cc(C(C)(C)C)on1)C(C(=O)NC(C)(C)C)c1cccnc1` (centres undefined) gave an IC50 greater than 99 µM.
Compound `COCC1(C(=O)Nc2cncc3ccccc23)CCOc2cc(Cl)c(Cl)cc21` (centres undefined) has an IC50 of 4.04 µM.
For `Cc1c(Br)cccc1Nc1cc(Cl)cc(CC(=O)Nc2cncc3ccccc23)c1`, the IC50 was 2.13 µM.
In the case of `O=C(Nc1cncc2c1CCCC2)[C@H]1CNS(=O)(=O)c2ccc(Cl)cc21` (stereo in doubt), the IC50 is reported as 0.723 µM.
Work on `Cc1ccncc1NC(=O)[C@H](C)OC(F)F` (stereo in doubt) yielded an IC50 greater than 99.5 µM.
Compound `Cc1ccccc1C(C)NC(C)C(=O)Nc1ccc2[nH]c(=O)[nH]c2c1` (centres undefined) has an IC50 greater than 99.5 µM.
Work on `O=C(NCCc1cccc(F)c1)C(c1cccnc1)N(C(=O)c1cocn1)c1ccc(C(F)(F)F)nc1` (centres undefined) yielded an IC50 of 36.4 µM.
`COC(=O)[C@@H]1CC[C@H](NC(=O)C(c2cccnc2)N(C(=O)c2cocn2)c2ccc(C(C)(C)C)cc2)C1` (stereo in doubt) was tested, and the IC50 was 2.38 µM.
For `CN(Cc1cccc(Cl)c1)C(=O)Cn1nnc2ccccc21`, the IC50 was greater than 99.5 µM.
`COc1ccc(C2CC(c3ccccc3)=NN2C(=O)CCl)cc1OC` (centres undefined) showed an IC50 of 0.543 µM.
`O=C(Nc1cncc2cccc(Cl)c12)C12CC(C1)Oc1ccc(Cl)cc12` was tested, and the IC50 was 75.1 µM.
Work on `Cc1c(Cl)ccc2c1[C@H](C(=O)Nc1cncc3ccccc13)CCO2` (stereo in doubt) yielded an IC50 of 3.67 µM.
`N#Cc1cc(CN2CCN(C(=O)CCl)CC2)c2ccccc2c1` gave an IC50 of 4.61 µM.
With `O=C(Cc1cccc(Cl)c1)NC1=NC(=O)c2ccccc21` the IC50 was greater than 99.5 µM.
For `O=C(CCc1nc2ccccc2[nH]1)N1CCC(CCc2ccccc2)CC1`, the IC50 was greater than 99.5 µM.
Compound `O=C(Cc1cc(Cl)cc(Nc2c(Cl)cncc2Cl)c1)Nc1cncc2ccccc12` has an IC50 of 2.04 µM.
In the case of `O=C(Cn1nnc2ccccc21)N(CC1CCOC1)c1ccc(C2CCNCC2)cc1` (centres undefined), the IC50 is reported as greater than 99.5 µM.
`Cc1ccc2c(NC(=O)Cc3cccc(Cl)c3)cncc2c1` gave an IC50 of 1.24 µM.
In the case of `CCN(c1ccccc1)S(=O)(=O)c1ccc(OC)c(NC(=O)CCl)c1`, the IC50 is reported as 3.23 µM.
`CC(C)(C)c1ccc(N(C(=O)c2cc(CO)n[nH]2)C(C(=O)NCCc2cccc(F)c2)c2cccnc2)cc1` (centres undefined) showed an IC50 of 18.8 µM.
Compound `O=C(CC1(C(=O)Nc2cncc3ccccc23)CCOc2ccc(Cl)cc21)Nc1nnco1` (centres undefined) has an IC50 greater than 99.5 µM.
Compound `CC(=O)N(c1ccc(N)cc1)c1cc(Cl)cc(CC(=O)Nc2cncc3ccccc23)c1` has an IC50 of 2.32 µM.
`O=C(Cn1nnc2ccccc21)Nc1cccc(Cl)c1` was tested, and the IC50 was greater than 99.5 µM.
Compound `COc1cc(Nc2cc(Cl)cc(CC(=O)Nc3cncc4ccccc34)c2)c(Cl)cc1Cl` has an IC50 of 6.8 µM.
For `O=C(Cc1cccc(Cl)c1)Nn1cnc2ccccc2c1=O`, the IC50 was 8.65 µM.
Work on `Cn1cncc1NC(=O)Cc1cccc(Cl)c1` yielded an IC50 of 93.9 µM.
With `C/C=C/C=C/C(=O)N1CC=C(c2c[nH]c3ncccc23)CC1` the IC50 was greater than 99.5 µM.
`Cn1ccc2cc(N(C(=O)c3cnc[nH]3)C(C(=O)NCCc3cccc(F)c3)c3cccnc3)ccc21` (centres undefined) was tested, and the IC50 was greater than 99 µM.
`Cc1ccc(S(=O)(=O)NCCNC(=O)N2CCN(S(=O)(=O)N3CCCC3)CC2)cc1` showed an IC50 greater than 99.5 µM.
Work on `N#Cc1ccc(N(C(=O)c2cocn2)C(C(=O)NCCc2cccc(F)c2)c2cccnc2)cc1` (centres undefined) yielded an IC50 greater than 99.5 µM.
In the case of `C=CC(=O)N[C@H](Cc1ccccc1)C(=O)NCCN(C)C` (stereo in doubt), the IC50 is reported as greater than 99.5 µM.
In the case of `COc1cc(C)ccc1N(C(=O)c1ccco1)C(C(=O)NCCc1cccc(F)c1)c1cccnc1` (centres undefined), the IC50 is reported as greater than 99.5 µM.
`Cc1nnn(-c2ccc(N(C(=O)c3cocn3)C(C(=O)NCCc3cccc(F)c3)c3cccnc3)cc2)n1` (centres undefined) was tested, and the IC50 was 33.2 µM.
`O=C(Nc1ccc(F)cc1)[C@@H]1CN(C(=O)CCl)CCN1S(=O)(=O)c1ccsc1` (stereo in doubt) showed an IC50 of 0.593 µM.
For `N#CC1(CS(=O)(=O)N2Cc3ccc(Cl)cc3C3(CCN(c4cncc5ccccc45)C3=O)C2)CCCC1` (centres undefined), the IC50 was 0.244 µM.
Work on `Cc1ccncc1NC(=O)Cc1cc(Cl)cc(-c2ccc(C3CC3(F)F)cc2)c1` (centres undefined) yielded an IC50 of 8.44 µM.
`O=C(Nc1cncc2ccc(C(F)(F)F)cc12)C1CCOc2ccc(Cl)cc21` (centres undefined) gave an IC50 greater than 99.5 µM.
Compound `CC1(c2ccc(N(C(=O)c3cocn3)C(C(=O)NCCc3cccc(F)c3)c3cccnc3)cc2)OCCO1` (centres undefined) has an IC50 of 83.1 µM.
`CC(=O)NCc1cc(Cl)cc(CC(=O)Nc2cnccc2C)c1` was tested, and the IC50 was 41.3 µM.
With `CC(=O)NCC1(C(=O)Nc2cncc3ccccc23)CCOc2ccc(Cl)cc21` (centres undefined) the IC50 was 3.34 µM.
With `O=C(COCC(=O)N1CCCC1)NC(C(=O)Nc1cncc2ccccc12)c1cccc(Cl)c1` (centres undefined) the IC50 was 6.35 µM and 8.47 µM.
Work on `COC1(CS(=O)(=O)N2Cc3ccc(Cl)cc3C3(CCN(c4cncc5ccccc45)C3=O)C2)CC1` (centres undefined) yielded an IC50 of 0.356 µM.
Compound `CC(C)(C)c1ccc(N(C(=O)c2cocn2)C(C(=O)NCCc2cccc(F)c2)c2cnc(N3CCOCC3)nc2)cc1` (centres undefined) has an IC50 greater than 99.5 µM.
`CCN(CC)S(=O)(=O)c1ccc(Nc2cc(Cl)cc(CC(=O)Nc3cncc4ccccc34)c2)cc1` gave an IC50 of 2.15 µM.
In the case of `O=C1NC[C@H](C(=O)Nc2cncc3ccccc23)c2cc(Cl)ccc21` (stereo in doubt), the IC50 is reported as 0.185 µM.
In the case of `O=C(Nc1cncc2ccccc12)C1CCOc2c(OCc3cccnc3)cc(Cl)cc21` (centres undefined), the IC50 is reported as 24.9 µM and > 9.95 µM.
`N#CCC(=O)N1CCc2ccc(Cl)cc2C1C(=O)Nc1cncc2ccccc12` (centres undefined) gave an IC50 of 6.51 µM.
`O=C1OC2(CCOc3ccc(Cl)cc32)C(=O)N1c1cncc2ccccc12` (centres undefined) was tested, and the IC50 was greater than 99.5 µM.
For `CNC(=O)C1(N2Cc3ccc(Cl)cc3C3(CCN(c4cncc5ccc(OCCN(C)C)cc45)C3=O)C2)CC1` (centres undefined), the IC50 was 0.614 µM.
